# Patent publication US20260327264A1, “PEPTIDE INHIBITORS OF INTERLEUKIN-23 RECEPTOR” (Zealand Pharma A/S, priority 2023, published 2026)
# *1 amine or outer side, *2 acyl side, *3 side chain or, on linkers, in order; H or OH if unused. Where a SMILES comes first, the peptide text is derived from it. Bridges are numbered along the chain shown (N, C = ends). [ ]: non-standard residue; d: D form. 2Nal = N[C@@H](Cc1ccc2ccccc2c1)C(=O)O; AEF = NCCOc1ccc(C[C@H](N)C(=O)O)cc1; X1 = O=C(Cc1ccc(CN[*:1])cc1)[*:2]; 3Pal = N[C@@H](Cc1cccnc1)C(=O)O; αMeL = CC(C)C[C@](C)(N)C(=O)O; Dab = NCC[C@H](N)C(=O)O; Sar = CNCC(=O)O
# Experiments:
# [1] = Peptide stability in simulated intestinal fluid (SIF); type: in vitro ADME; details: simulated intestinal fluid; for remaining at 1 h, 10 µM: pig, SIF, pH 6.8, pancreatin, 37° C.
# In short: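 Peptide at 10 μM final in USP-type SIF (10 g/L porcine pancreatin, phosphate buffer pH 6.8), shaken at 37 °C. Samples at 0, 1 and 4 h quenched in acetonitrile/0.1% formic acid and analysed by LC-HRMS. Percent remaining calculated from absolute peak areas relative to time zero.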
# [2] = Peptide stability in simulated gastric fluid (SGF); type: in vitro ADME; details: pig, pH 1.2, pepsin, 37° C.
# In short: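 Peptide (10 μM final) incubated at 37 °C in USP SGF, pH 1.2 with porcine pepsin 3.2 g/L; aliquots at 0, 1 and 4 h quenched in acidified acetonitrile.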
Structure (SMILES),"remaining at 1 h, 10 µM [1] [%]","remaining at 1 h, 10 µM [2] [%]","remaining at 4 h, 10 µM [2] [%]",SIF stability (in words) [1]
"CNC(=O)[C@H](Cc1cccnc1)NC(=O)[C@H](CCN)NC(=O)[C@@H]1CCC(=O)NCc2ccc(cc2)CC(=O)N[C@@H](C)C(=O)N[C@H]2CCC(=O)NCC[C@H](NC(=O)[C@H](CCC(N)=O)NC(=O)[C@H](Cc3c[nH]c4ccccc34)NC2=O)C(=O)N[C@@H](Cc2c[nH]c3ncccc23)C(=O)N[C@@H](Cc2ccc3ccccc3c2)C(=O)NC(C)(C)C(=O)N1 [Compound 43, [4-Aminomethyl-phenylacetyl](1c)*AE(2c)WQ[Dab](2c)[7-AzaTrp][2-Nal][Aib]E(1c)[Dab][3-(3-Pyridyl)-Ala]-[NHMe]]",96,105,,
"CNC(=O)CC[C@@H]1NC(=O)[C@H](Cc2c[nH]c3ccccc23)NC(=O)[C@@H]2CCC(=O)NCC[C@H](NC1=O)C(=O)N[C@@H](Cc1ccc(OCCN)cc1)C(=O)N[C@@H](Cc1ccc3ccccc3c1)C(=O)N[C@@](C)(CC(C)C)C(=O)N[C@H](C(=O)N[C@@H](CCN)C(=O)N[C@@H](Cc1cccnc1)C(=O)NC)CCC(=O)NCc1ccc(cc1)CC(=O)N[C@@H](CO)C(=O)N2 [Compound 29, [4-Aminomethyl-phenylacetyl](1c)*SE(2c)W[Q(Me)][Dab](2c)[Y(2-aminoethoxy)][2-Nal][2-Me-Leu]E(1c)[Dab][3-(3-Pyridyl)-Ala]-[NHMe]] ([X1]SEWE(NHMe)[Dab][AEF][2Nal][αMeL]E[Dab][3Pal]-NHMe; lactam 3-6, N-10)",91,94,90,
"CNC(=O)[C@H](Cc1cccnc1)NC(=O)[C@H](CCN)NC(=O)[C@@H]1CCC(=O)NCc2ccc(cc2)CC(=O)N[C@@H](CO)C(=O)N[C@H]2CCC(=O)NCC[C@H](NC(=O)[C@H](CCC(N)=O)NC(=O)[C@H](Cc3c[nH]c4ccccc34)NC2=O)C(=O)N[C@@H](Cc2ccc(OCCN)cc2)C(=O)N[C@@H](Cc2ccc3ccccc3c2)C(=O)N[C@@](C)(CC(C)C)C(=O)N1 [Compound 8, [4-Aminomethyl-phenylacetyl](1c)*SE(2c)WQ[Dab](2c)[Y(2-aminoethoxy)][2-Nal][2-Me-Leu]E(1c)[Dab][3-(3-Pyridyl)-Ala]-[NHMe]]",96,91,87,SIF stable
"CNC(=O)[C@H](Cc1cccnc1)NC(=O)[C@H](CCN)NC(=O)[C@@H]1CCC(=O)NCc2ccc(cc2)CC(=O)N[C@@H](C)C(=O)N[C@H]2CCC(=O)NCC[C@H](NC(=O)[C@H](CCC(N)=O)NC(=O)[C@H](Cc3c[nH]c4ccccc34)NC2=O)C(=O)N[C@@H](Cc2ccc(OCCN)cc2)C(=O)N[C@@H](Cc2ccc3ccccc3c2)C(=O)N[C@@](C)(CC(C)C)C(=O)N1 [Compound 20, [4-Aminomethyl-phenylacetyl](1c)*AE(2c)WQ[Dab](2c)[Y(2-aminoethoxy)][2-Nal][2-Me-Leu]E(1c)[Dab][3-(3-Pyridyl)-Ala]-[NHMe]]",,107,103,
"CC(C)C[C@]1(C)NC(=O)[C@H](Cc2ccc3ccccc3c2)NC(=O)[C@H](Cc2ccc(OCCN)cc2)NC(=O)[C@@H]2CCNC(=O)CC[C@H](NC(=O)[C@H](CO)NC(=O)Cc3ccc(cc3)CNC(=O)CC[C@@H](C(=O)N[C@@H](CCN)C(=O)N[C@@H](Cc3cccnc3)C(=O)N(C)CC(N)=O)NC1=O)C(=O)N[C@@H](Cc1c[nH]c3ccccc13)C(=O)N[C@@H](CCC(N)=O)C(=O)N2 [Compound 9, [4-Aminomethyl-phenylacetyl](1c)*SE(2c)WQ[Dab](2c)[Y(2-aminoethoxy)][2-Nal][2-Me-Leu]E(1c)[Dab][3-(3-Pyridyl)-Ala][Sar]-[NH2]] ([X1]SEWQ[Dab][AEF][2Nal][αMeL]E[Dab][3Pal][Sar]-NH2; lactam 3-6, N-10)",102,,95,SIF stable
